# Like-named read-outs stand apart in the source and are kept apart here.
# Assays:
# [1] = Pharmacokinetics of capecitabine in animal models; type: in vivo, mouse
# Description: (§1) Plasma Handling: The mouse plasma was separated from the blood by centrifugation at 10,000 g at 4° C. for 10 min.
# a) Capecitabine-containing sample: The plasma (50 μl) was extracted with 200 μl of acetonitrile in the presence of 10 μl of 5-iodouracil (IU)(50 μg/ml) as an internal standard. After centrifugation, the supernatant from capecitabine-containing sample was dried by a speedvac, reconstituted with 50 μl of 0.1 M sodium acetate buffer (pH 4.8), and extracted with 1.3 ml of water-saturated ethyl acetate. The organic layer was separated after centrifugation (10,000 g at 4° C. for 10 min), dried by a speedvac and reconstituted with 100 μl of water.
# (§2) The resultant analyte was then analyzed by HPLC with UV absorption and/or radioactivity.
# hepatocellular carcinoma = settings: cited from earlier work
# colorectal cancer = settings: cited from earlier work; for Median survival time / Median time to disease progression: NS
# [2] = Pharmacokinetics of gemcitabine (dFdC) and dFdU in plasma of PAN02 bearing BDF-1 mice; type: in vivo; settings: for AUC, dFdC + PHY906: PHY906 500 mg/kg 30 min before gemcitabine; for AUC, dFdC alone: gemcitabine 600 mg/kg
# Description: as §1
# b) Gemcitabine-containing plasma: The plasma (50 μl) was extracted with 200 μl of acetonitrile (ACN) in the presence of 5 μl of 0.1 mM AZT as an internal standard. After centrifugation, the supernatant was dried by a Speedvac, reconstituted with 100 μl of solution containing 2.5% ACN and 97.5% of 15 mM ammonium acetate (pH 5.0).
# as §2
# To determine, for a future clinical trial, if PHY906 would change the metabolism of gemcitabine, a pharmacokinetics analysis in mice bearing pancreatic cancer was performed. Mice were divided into three sets of 15: gemcitabine only, gemcitabine plus PHY906, and vehicle control. Each mouse in the set was bled twice at two different time points. Plasma was processed as described in Materials and Methods and analyzed by HPLC with radioactivity confirmation of peak identity and quantitation.
# [3] = Pharmacokinetics of CPT-11/FU/LV in BDF-1 mice bearing Colon 38 tumor; type: in vivo; settings: triple combination CPT-11/FU/LV
# Description: The pharmacokinetic data of CPT-11/FU/LV in BDF-1 mice bearing Colon 38 tumor in the presence and absence of PHY906 are shown in FIGS. 18-20. PHY906-6 is a clinical batch of PHY906, containing 10% excipient (starch).
# [4] = Determination of CPT-11 dose in non-tumor bearing BDF-1 mice (weight loss, death); type: in vivo; settings: single i.p. bolus
# Description: Animal weight loss was monitored as an indication of toxicity caused by anticancer chemotherapy agents. The effect of CPT-11 on weight loss in non-tumor bearing BDF-1 mice was studied using six different dosages: 100, 200, 300, 400, 600, or 800 mg/kg body weight to determine the maximum tolerable dose in mice. A single bolus dose of CPT-11 was administered intraperitoneally (i.p.) at the beginning of the study, and weight loss was monitored daily for 12 days.
# One dose of CPT-11 was administered i.p. to each mouse at the beginning of the study, and the weight loss of the animal was then monitored daily for 12 days.
# [5] = Toxicity (tolerable dose, body weight loss, death) in nude mice bearing human HepG2 xenografts; type: in vivo, NCr-nude mice
# Description: Weight loss was observed immediately after CPT-11 treatment and continued for six days in mice injected with 400 mg/kg of CPT-11. These animals gradually recovered their original body weight on day 12. […] The maximum tolerable dose of CPT-11 in nude mice bearing the human HepG2 xenografts was 200 mg/kg (data not shown).
# Human HepG2 tumor cells were implanted into NCr-nude mice to test the effect of PHY906 on the antitumor activity of CPT-11. […] CPT-11 (200 mg/kg, i.p.) was given on day 0. PHY906 was given twice daily at 500 mg/kg starting on day 0.
# Based upon the known pharmacological profiles of herbs contained in PHY906, it was speculated that the enhancing effects might act through immunological and/or hematological systems in normal mice. Therefore, experiments were designed to test the hypothesis in nude mice, which are deficient in immunological and hematological systems. Human hepatocellular carcinoma HepG2 cells were implanted into NCr-nude mice to test the effect of PHY906 on the antitumor activity of CPT-11. […] CPT-11 (200 mg/kg, i.p.) was given on day 0. PHY906 was given twice daily at 500 mg/kg starting on day 0 and continued for 8 days. As shown in 31, PHY906 enhanced the antitumor effect of CPT-11 on human HepG2 xenografts in nude mice.
# [6] = Host toxicity (body weight loss, mortality, blood cell counts) in chemotherapy treated BDF-1 mice bearing Colon 38 tumor; type: in vivo
# Description: Anti-Tumor Studies: Murine Colon 38 (1-2×10^6 cells in 0.1 ml PBS) or human HepG2 cells (1-2×10^6 cells in 0.1 ml PBS) were transplanted subcutaneously into BDF1 or NCr athymic nude mice, respectively. The length and width of the tumors were measured daily with sliding calipers. The tumor weight was estimated according to the following formula (Pizzorno G, Wiegand R, Lentz S, et al., Cancer Res. 52:1660-1665 (1992)): Tumor weight (mg)=length (mm)×width (mm)^2/2.
# After 10 to 14 days, mice (five animals/group) with tumor weights ranging from 150-200 mg were selected for drug studies (Guo X, Lerner-Tung M, Chen H X, et al., Biochem Pharmacol 49:1111-1116 (1995)). Mice were sacrificed when the tumor size reached 10% of body weight. PHY906 was administered orally either alone or with anti-cancer chemotherapeutic agents. The effect of PHY906 on antitumor efficacy and the reduction of toxicity by the agents were evaluated. CPT-11 was given intraperitoneally (i.p.) 30 min after PHY906 administration with the selected dose. The regimen of FU/LV combination therapy was given as follows:
# The first day of treatment was defined as day 0. PHY906 was given orally twice a day (10 am and 3 pm) for either 4 or 8 days beginning on day 0. For the control group, mice were administrated a vehicle, either PBS for i.p. or H2O for p.o. (oral administration). Animals were monitored for mortality, weight loss, and tumor size daily.
# Blood Cell Counts: Blood (20 μl) was taken from mice on days 0, 3, 6, 9 and 12 with micro-capillary tubes. Blood was then be diluted to 200 μl with normal saline (0.85% Sodium Chloride). WBC, RBC and platelets were counted by a BAKER SYSTEM 9100™ […] (Biochem ImmunoSystems Inc., Allentown, Pa. 18103-9562).
# PHY906 was evaluated as a modulator of CPT-11 therapy for toxic side effects in mice inoculated with Colon 38 tumor cells. Based on the previous findings (Example 2), a single bolus dose of 400 mg/kg CPT-11 was selected to study the effect of PHY906 on weight-loss associated with toxicity of CPT-11. To evaluate whether PHY906 impairs the antitumor efficacy of CPT-11, mice were implanted subcutaneously with Colon 38 tumor cells. Ten to 14 days after inoculation, mice were treated with CPT-11 (400 mg/kg, i.p.) in the absence or presence of PHY906, which was given orally twice a day at varying doses (125 mg/kg, 250 mg/kg, and 500 mg/kg). PHY906 treatment was continued at the dose indicated for 8 consecutive days.
# Mice were divided into four groups with different treatment regimens: Group (A) treatment with vehicle; Group (B) treatment with a single dose of 400 mg/kg CPT-11 by i.p. injection; Group (C) treatment with PHY906 (500 mg/kg/b.i.d.) alone; or Group (D) treatment with a single dose of 400 mg/kg CPT-11 plus 500 mg/kg/b.i.d. PHY906 for 4 or 8 days. The sequence of each treatment regimen appears in Materials and Methods. As depicted in Table 9, 35 of 35 tumor-bearing mice (100%) from Group A and 15 of 15 mice (100%) from Group C survived treatment with either vehicle or PHY906 alone for 4 or 8 days, indicating no or very low toxicity for PHY906.
# [7] = CPT-11 400 mg/kg, 1 day, alone, observed 14 days
smiles,measurement,setting,value
"CCCCCOC(=O)Nc1nc(=O)n([C@@H]2O[C@H](C)[C@@H](O)[C@H]2O)cc1F [capecitabine, 5′-deoxy-5-fluoro-N-[(pentyloxy)carbonyl]-cytidine]",Pharmacokinetic profile on co-administration of PHY906,[1],did not alter the pharmacokinetic profile
same,Response rate,hepatocellular carcinoma; 55 patients with nonresectable hepatobiliary carcinoma,13%
same,Response rate,"hepatocellular carcinoma; hepatocellular carcinoma / liver cancer, systemic chemotherapy",13%
same,Median survival time,colorectal cancer; Hoff et al. 2001,380 days
same,Median time to disease progression,colorectal cancer; Hoff et al. 2001,128 days
same,Response rate,"colorectal cancer; Hoff et al. 2001, P=0.0014",21%
same,Median survival time,colorectal cancer; Van Cutsem et al. 2001,404 days
same,Median time to disease progression,colorectal cancer; Van Cutsem et al. 2001,137 days
same,Response rate,"colorectal cancer; Van Cutsem et al. 2001, P=0.027",21%
"COc1cccc2c1C(=O)c1c(O)c3c(c(O)c1C2=O)C[C@@](O)(C(=O)CO)C[C@@H]3O[C@H]1C[C@H](N)[C@H](O)[C@H](C)O1 [doxorubicin, Doxorubicin]",Response rate,"hepatocellular carcinoma; eight trials, 475 evaluable patients (range 0-35%)",16%
O=c1ccn(C2OC(CO)C(O)C2(F)F)c(=O)[nH]1 (stereo not shown) [dFdU],"Cmax, dFdC + PHY906",[2]; Radioactivity detection,48000 ng/mL
same,"Cmax, dFdC alone",[2]; Radioactivity detection,31000 ng/mL
same,"Tmax, dFdC + PHY906",[2]; Radioactivity detection,2 h
same,"Tmax, dFdC alone",[2]; Radioactivity detection,1 h
same,"T½, dFdC + PHY906",[2]; Radioactivity detection,0.82 h
same,"T½, dFdC alone",[2]; Radioactivity detection,1.55 h
same,"AUC, dFdC + PHY906",[2]; Radioactivity detection,8.5 mg·min/mL
same,"AUC, dFdC alone",[2]; Radioactivity detection,5.8 mg·min/mL
same,"Cmax, dFdC + PHY906",[2]; UV detection,22000 ng/mL
same,"Cmax, dFdC alone",[2]; UV detection,14000 ng/mL
same,"Tmax, dFdC + PHY906",[2]; UV detection,2 h
same,"Tmax, dFdC alone",[2]; UV detection,1 h
same,"T½, dFdC + PHY906",[2]; UV detection,1.16 h
same,"T½, dFdC alone",[2]; UV detection,1.64 h
same,"AUC, dFdC + PHY906",[2]; UV detection,4.4 mg·min/mL
same,"AUC, dFdC alone",[2]; UV detection,3.1 mg·min/mL
same,Levels in circulation in the presence or absence of PHY906,[2]; plasma,not a dramatic difference
CCc1c2c(nc3ccc(O)cc13)-c1cc3c(c(=O)n1C2)COC(=O)[C@]3(O)CC [SN-38],"Level in plasma, liver, or tumor after PHY906 co-administration",[3],remains unchanged
"CCc1c2c(nc3ccc(OC(=O)N4CCC(N5CCCCC5)CC4)cc13)-c1cc3c(c(=O)n1C2)COC(=O)[C@]3(O)CC [CPT-11, Irinotecan]",Dosages with little effect on body weight,[4],lower than 200 mg/kg
same,Doses resulting in animal death on the second day,[4],greater than or equal to 600 mg/kg
same,Doses mice were able to tolerate,[4]; 12 days,up to 400 mg/kg
same,Maximum tolerable dose,[5],200 mg/kg
same,Survival,[6]; [7],82.5%
same,Total No. of Mice Survived N,[6]; [7],33
same,Animal Death (Death/Total),"[6]; CPT-11 treated mice, observed for 14 days",7/40
same,Level in tumor or liver tissues after PHY906 co-administration,[3],no significant change
same,AUC in plasma after co-administration of PHY906,[3]; PHY906-6,increases
same,"Response rate, second-line therapy",colorectal cancer; advanced colorectal cancer,10%-15%
"O=c1[nH]cc(F)c(=O)[nH]1 [FU, 5-fluorouracil]",AUCs of FU and its nucleoside/nucleotide metabolites (FU+FUR+FUMP) in plasma or liver after PHY906 co-administration,[3],change
same,Response rate in patients with advanced disease,"colorectal cancer; human, in vivo",10%-12%
